Laboratory results as given in US7968575B2, “Nitric oxide donors and uses thereof” (priority 2004, dated 2011).

How the values were obtained:
isolated rat aorta = assay: In vitro induction of tolerance: vasorelaxation of aortic rings pre-exposed to the NO-releasing compound; type: cell-based; details: vasorelaxation in rings pre-treated with 0.44 mM of the compound versus control rings; in words
Experimental: Aortic rings were prepared as described hereinabove, and were exposed to 0.44 mM GTN (vehicle was water:ethanol:propyleneglycol at proportional ratio of 1:1:1) for 1 hour before CCRC construction, to thereby induce tolerance to nitroglycerine. At the end of the tolerance induction period, rings were thrice washed with the path buffer (Krebs-bicrbonate) every 15 minutes for the following hour and then CCRC for vasorelaxation on GTN-induced tolerance rings were constructed for GTN (pretreated versus untreated rings, FIG. 15), in order to verify the ability to induce and measure GTN tolerance induction in vitro
Attempted induction of tolerance to the NO-donating compounds of the present invention was performed under the same conditions as for GTN. Thus, in an exemplary experiment, rings were exposed to 0.44 mM solution of Pet-3 in the attempt to induce tolerance for Pet-3. CCRC were then measured for the vasorelaxing effect of Pet-3 on a group of rings which were pre-exposed to Pet-3 as to induce tolerance to Pet-3, and for an untreated control group. The above protocol was repeated with Pet-2, Pet-7, Pet-8, Pet-12, Pet-24, Pet-43, Pet-149 and Pet-152.

[1] = test system: anesthetized hypertensive Sprague-Dawley male rats; assay: Hypotensive effects: mean arterial pressure after iv bolus; type: in vivo, rat; details: rats pre-treated with phenylephrine, iv bolus doses; in words
Experimental: Mean arterial pressure (MAP) was monitored and determined during bolus infusion of Pet-2, Pet-3, Pet-7, Pet-8, Pet-12 and Pet-13. Briefly, polyethylene catheters (PE50) were inserted into the carotid artery and into the jugular vein of anesthetized hypertensive Sprague-Dawley male rats (200-300 grams). A blood pressure recorder was placed within the carotid artery. Phenylephrine (0.1 mg) was then injected and the mean arterial blood pressure (MABP) was monitored continuously until a stable baseline was reached. The hypotensive effects of intravenous (iv) bolus doses (0.1 mg of each tested compound) administered intravenously at the jugular vein in minimal volume of vehicle (0.2 ml per dose) were evaluated. Five minutes were allowed between each dose, during which the maximal decrease in MAP was recorded and a dose-response graph comparing the hypotensive effect of the compounds was constructed.

c-GMP [2] = assay: Induction of in vivo nitrate tolerance (cGMP in aorta isolated after 16 hour infusion); design: species or system rat; details: in words
Experimental: For c-GMP levels and tolerance development, the rat's thoracic aorta was isolated after exposure to the tested compound in vivo, and measured as described above in the in vitro assays.
Male Sprague Dawley rats (220 to 250 grams) were housed under constant temperature and humidity conditions. Light was maintained at a 12/12 light dark cycle. Except for 12 hours before the experiment, when food fasting was initiated, all rats had free access to standard rat pellet diet and tap water. The animals were anesthetized by intraperitoneal injection of ketamine and xylazine combination (50 and 10 milligram per kilogram, respectively). […] The catheters were filled with normal saline solution containing 1000 IU/ml of heparin and plugged with a metal pin. Catheters were externalized to the back of the neck region and secured by a polyester felt disk.
After implantation, the rats were individually housed until they regained their preoperative weight and appeared healthy (3 to 4 days post-operation). At this time point (day 0), an osmotic mini-pump (Alza Corp., Palo Alto, Calif.) delivering constant volume (10 μl/hour) of vehicle or drug was connected to one of the intravenous catheters.
For inducing tolerance to the tested NO-donor according to the present invention, the animals received 200 μg/hour of the tested compound for 16 hours (short-term-induced tolerance). A similar number of animals were processed by the same surgical procedure and received the vehicle alone (10 μl/hour of a solution consisting of 30% ethanol and 30% propylene glycol in sterile distilled water for injection).
At the end of the infusion periods used for the development of tolerance (16 hour), the rats were anesthetized as described above, the two catheters were externalized and the delivering catheters were disconnected from the mini-pump. The abdomen was opened by midline incision and the thoracic aorta were isolated, washed and cleaned from the surrounding tissues. Strips of the treated aortas were pooled in chambers containing Krebs-Hanseliet buffer (10 ml), and exposed to 1 μM of the tested NO-donor (final concentration) for 120 seconds. The tissues were quickly collected and frozen in liquid nitrogen for cGMP measurement, described hereinabove.

c-GMP [3] = assay: Cyclic-GMP measurement in aortic rat tissue (radioimmunoassay); type: cell-based; details: rat thoracic aorta, summary of Table 5; in words
Experimental: GTN (10^−6 M) was added to the chamber and, 1 minute after exposure to the drug, rings (usually 3-5) were taken, wrapped with aluminum foil and immediately frozen in liquid nitrogen for storage. Control sample group was treated with the vehicle solution only. At the time of analysis, rings were thawed, blotted over a dry gauzed and weighted. A known weight of tissue was homogenized in 2 ml ice-cold modified Hank's balanced salt solution containing (in gram/liter) NaCl 8; KCl 0.4; glucose 1; KH2PO4 0.06; Na2HPO4 0.047; Phenol red 0.017 and further containing 25 mM EDTA (disodium salt). The homogenate was centrifuged at 4000 g (force units) for 10 minutes at 2-4° C. and the supernatant was thereafter transferred into fresh pre-cooled test tube containing 1 ml of acetonitrile. The tubes were vortex mixed for a few seconds and subsequently centrifuged at 4000 g for 5 minutes at 2-4° C., to remove the precipitated protein. Each supernatant was transferred into a clean test tube and evaporated to dryness under a stream of nitrogen at 55° C. The dry residue was reconstituted with 10 volumes of Tris-EDTA buffer pH 7.5 (0.05 M Tris containing 4 mM EDTA). Aliquots of 100 μl of the reconstituted solution in duplicate were used for c-GMP measurements using Amersham RIA kit, as is described in Haj-Yehia & Benet [Pharmacology, 1995, 273, 1, pp. 94-100]. Standard curves were plotted with six concentrations (0, 0.5, 1, 2, 4 and 8 pmoles of c-GMP per tube).
The NO-tolerance effect of GTN and NO-donor compounds according to the present invention was measured by following the production of c-GMP in slices of thoracic aorta of rats. Thus, the production of c-GMP was measured as described in the methods section above for the reference NO-donor compound GTN, and for the NO-donors of the present invention Pet-2, Pet-3, Pet-7, Pet-8, Pet-10, Pet-12, Pet-24, Pet-59, Pet-147, Pet-149, Pet-152, Pet-154 and Pet-155.

In the case of O=[N+]([O-])OCC(CO[N+](=O)[O-])O[N+](=O)[O-] [GTN, glyceryl trinitrate, reference compound], the “tolerance induction in vitro” value (isolated rat aorta) was “tolerance induced”, the “hypotensive effect on MAP following successive administrations” value [1] was “attenuation” and the “level of cGMP following a repeated treatment in vivo” value (c-GMP [2]; aorta of rats infused 200 μg/hour for 16 hours, then exposed to 1 μM compound for 120 seconds) was “decreased”. For the same compound, the “tolerance induction in vivo” value (c-GMP [2]; cGMP accumulation in isolated aorta of rats pre-treated in vivo with the compound) was “tolerance inducing effect” and the “c-GMP level following a repeated treatment” value (c-GMP [3]) was “significantly reduced”.
